Patent publication US12274703B2, “Compositions and methods of treatment for neurological disorders comprising a dementia” (Gliapharm SA, priority 2017, dated 2025)

The molecules below were run on astrocytes (assay: Extracellular lactate quantification). Settings: Mus musculus, Astrocyte; Appendix II; lactate secretion; read-out: EC50.
Type: cell-based, mouse
Description: (§1) Primary cultures of cerebrocortical astrocytes were obtained from 1-2-day-old OF1 mouse pups (Charles River Laboratories). Briefly, cortices were isolated and minced in small pieces under a dissecting microscope. The cells were incubated for 30 min at 37° C. in a solution containing 20 U/ml of papain enzyme (Worthington Biochemical), L-cysteine 1 mM (Sigma), and 10 kU/ml DNase I (Worthington Biochemical) for an enzymatic dissociation. Papain activity was stopped by the addition of fetal calf serum (FCS) to the solution, and a single-cell suspension was then obtained by mechanical dissociation, which consisted in cells trituration in a DMEM (D7777, Sigma-Aldrich) medium (supplemented with 44 mm NaHCO3, and 10 ml/L antibiotic/antimycotic solution) containing 10% FCS. The cells were seeded at an average density of 6×10^4 cells/cm^2 in poly-D-lysine-coated 96, 12 or 6-well culture plates, depending on their use, and incubated at 37° C. in a humidified atmosphere containing 5% CO2/95% air. Culture medium was renewed twice per week. Cells were stimulated and harvested between DIV14 and DIV17, when confluence and cell growth were optimal.
Secretion of L-lactate was determined in the extracellular medium of 96-well plated astrocytes after 90 min stimulation (at 37° C., in 5% CO2/95% air conditions) with the drug of interest. The stimulation medium was composed of D5030 medium (completed with D-glucose 5 mM and 44 mM sodium bicarbonate) for 90 min in concentrations ranging from 0 to 100 μM.
Briefly, 200 μl of a Glycine (Sigma)-Semicarbazide (Acros) 0.2M pH 10 buffer containing 3 mM NAD (Roche) and LDH 14 U/ml (Roche) was added to each well of a 96-well plate containing 30 μl aliquots complemented with 20 μl fresh complete D5030 medium. Samples were incubated at 37° C. for 1 h. After samples cooled down at room temperature, the fluorescence intensity (340 nm excitation/450 nm emission) that represents the amount of NADH produced was measured, and lactate concentration values were determined from a standard curve of L-lactate.
Statistical analysis consisted in ANOVA followed by Fisher LSD post-hoc test for pair-wise comparisons.
Levels of lactate secreted by astrocytes were measured in the extracellular medium at 90 min after stimulation with hits (molecules) from the CDC54K library.

Structure (SMILES) | EC50
CCN1C(=O)c2cccc3c(S(=O)(=O)Nc4ccc(OC)cc4OC)ccc1c23 [T5477696] | 5.1 µM
CCOc1ccc(-c2csc3c(=O)n(Cc4ccncc4)cnc23)cc1OCC [L115-0403] | 3.28 µM
O=C(Nc1ccc(F)c(F)c1)c1ccc(Cl)c(S(=O)(=O)N2CCCC2)c1 [T5450239] | 4.42 µM
CCC(C)NS(=O)(=O)c1ccc(Oc2ccc(C)cc2)cc1 (stereo not drawn) [T5400234] | 4.64 µM
CCc1ccc(S(=O)(=O)Nc2c(C)nn(C)c2C)cc1 [T5753165] | 6.41 µM
COc1ccc(NS(=O)(=O)c2ccc(N3CCCCS3(=O)=O)cc2)cc1 [G508-0015] | 4.83 µM
O=c1[nH]nc(OCCOc2ccc(Br)cc2)n1C1CC1 [T533260] | 6.84 µM
COc1ccc(-c2csc(N3C(=O)CC4CS(=O)(=O)CC43)n2)cc1 (stereo not drawn) [T5832764] | 4.02 µM
Cc1nc2ncnn2c(NCc2ccco2)c1C [Z606-8298] | 4.89 µM
CC(=O)Nc1cccc(NC(=O)CSc2nc(C)c(C)n2C2CCCC2)c1 [T5788339] | 3.9 µM
COc1ccc(NS(=O)(=O)c2cccc(NC(=O)c3cccs3)c2)cc1 [T0517-4117] | 5.43 µM
c1ccc(Cc2ccc(OCCn3ccnc3)cc2)cc1 [T5821723] | 4.29 µM
CC(=O)N1CC(C)(C)c2cc(S(=O)(=O)NCc3ccc(C)cc3)ccc21 [L302-0069] | 6.27 µM
COc1ccc(C(C)NC(=O)c2cc(=O)c3ccccc3o2)cc1F (stereo not drawn) [T5710343] | 6.31 µM
O=C(CN1CCCC1c1ccc2c(c1)OCCCO2)Nc1cc(F)cc(F)c1 (stereo not drawn) [T5993799] | 8.81 µM
CC1(C)Cc2cccc(OCC(O)CN3CCc4ccccc4C3)c2O1 (stereo not drawn) [T0515-1783] | 5.39 µM
Cn1c(=O)c(N2CCC(NC(=O)Nc3cccc(Cl)c3)CC2)nc2ccccc21 [L932-0267] | 4.64 µM
CCc1c(C)nc2ncnn2c1NC1CCCCCC1 [Z606-8351] | 5 µM
Cc1nc2ncnn2c(NC2CCCCCC2)c1C [Z606-8287] | 4.29 µM
COc1ccc(NS(=O)(=O)c2cccc(NC(=O)c3ccccc3)c2)cc1 [T5274959] | 4.12 µM
COc1ccc(NS(=O)(=O)c2ccc(NC(=O)C3CCCO3)cc2)cc1 (stereo not drawn) [T5329723] | 4.61 µM

Structure (SMILES) | EC50
c1ccc(-c2c[nH]c3ncnc(NCCN4CCOCC4)c23)cc1 [T0513-0213] | 3.99 µM
CC(=O)c1c(C)[nH]c(C(=O)C(C)N(C)Cc2ccc3c(c2)OCO3)c1C (stereo not drawn) [T5798761] | 4.01 µM
CC(=O)N1CCCc2cc(S(=O)(=O)Nc3ccc(OC(F)(F)F)cc3)ccc21 [G855-0183] | 6 µM
COc1ccccc1NC(=O)CO/N=C(/N)c1cccc(C(F)(F)F)c1 [T5770640] | 4.86 µM
CN(C)S(=O)(=O)c1cccc(C(=O)Nc2ccc(Oc3ccccc3)cc2)c1 [T5393500] | 3.43 µM
CC(=O)c1c(C)[nH]c(C(=O)N(C)Cc2ccc(C)cc2C)c1C [T5705522] | 2.53 µM
Cc1noc2ncnc(NC(C)CCc3ccccc3)c12 (stereo not drawn) [E944-0182] | 3.99 µM
O=C(Nc1ccc(S(=O)(=O)NCC2CCCO2)cc1)c1ccccc1 (stereo not drawn) [Y031-0361] | 8.23 µM
O=S(=O)(Nc1ccc(S(=O)(=O)C(F)F)cc1)c1ccc(Cl)cc1 [T5311200] | 6.02 µM
CCc1ccc(NC(=O)Cc2cn(C)c3ncccc23)cc1 [M508-0370] | 4.58 µM
N#Cc1cc(C(=O)c2cc(F)ccc2O)cn(-c2ccc(F)c(Cl)c2)c1=O [T0516-6894] | 8.21 µM
FC(F)(F)c1cccc(CNc2ncnc3[nH]ncc23)c1 [F5285-0069] | 6.29 µM
N#Cc1ccc(S(=O)(=O)Nc2ccccc2C(=O)NCc2ccccc2)cc1 [T5673322] | 7.42 µM
Cc1cccc(NC(=O)c2ccc(S(=O)(=O)Nc3ccccc3)cc2)n1 [T6125251] | 4.56 µM
COc1cccc(C(CNc2nc(C(F)(F)F)nc3ccccc23)N(C)C)c1 (stereo not drawn) [T5800607] | 5.87 µM
CCCCn1c(CN(C)Cc2ccccc2)nc2c1c(=O)n(C)c(=O)n2C [T5788545] | 3.59 µM
CCN(CC)S(=O)(=O)c1ccc(S(=O)(=O)Nc2ccc(C)cc2Cl)cc1 [T5453923] | 5.36 µM
CCc1ccccc1NC(=O)CN(C)c1ncnc2c1oc1ccccc12 [T5712071] | 1.14 µM
Cc1ccc(-c2csc(NC(=O)c3ccncc3)n2)cc1[N+](=O)O [T5694329] | 1.59 µM
CCc1c(C)nc2ncnn2c1NC1CCCCC1 [Z606-8352] | 4.11 µM
Cc1sc2nc(CSc3nc4ccccc4c(=O)n3C)[nH]c(=O)c2c1C [T0517-2783] | 3.84 µM

Structure (SMILES) | EC50
Cc1sc2nc(CSc3nc4ccccc4[nH]3)nc(N)c2c1C [T5719257] | 2.85 µM
CCCCN1C(=O)C(C)(C(=O)Nc2ccc(OCC)cc2)Oc2cccnc21 (stereo not drawn) [P621-1364] | 5.86 µM
CCc1ccc(NS(=O)(=O)c2c(C)c(-c3nnc(C4CC4)o3)n(C)c2C)cc1 [M950-1515] | 4.06 µM
Cc1ccc(OCCn2c(C)nc3ccccc32)cc1 [T5444083] | 4.59 µM
Cc1nc2ccc(NC(=O)c3ccc4c(c3)CC(C)N4S(C)(=O)=O)cc2s1 (stereo not drawn) [T5606387] | 4.61 µM
COc1ccc(CCNc2ncnc3c2cnn3C)cc1 [K405-2595] | 3.51 µM
c1nc(NCc2ccc3c(c2)OCO3)c2sccc2n1 [T5787526] | 3.89 µM
CC(C)(C)NS(=O)(=O)c1cccc(C(=O)Nc2ccncc2)c1 [T5827594] | 5.02 µM
Cc1ccc(S(=O)(=O)Nc2ccc(F)c(F)c2F)cc1[N+](=O)[O-] [T5729557] | 5.69 µM
O=S(=O)(Nc1ccc(Cl)cc1)c1ccc(F)c(Cl)c1 [T6947848] | 5.5 µM
Cc1nc2ccccc2n1CCOc1ccc(Br)cc1 [T0505-4087] | 7.07 µM
CCc1cc2c(NC3CCCC3)ncnc2s1 [887-0183] | 3.94 µM
CCc1ccc(S(=O)(=O)Nc2cc3c(cc2C)n(C)c(=O)n3C)cc1 [G433-0293] | 4.48 µM
CC(=O)N1CCc2cc(S(=O)(=O)NCC(C)c3ccccc3)ccc21 (stereo not drawn) [T5707230] | 4.88 µM
CC(Nc1ncnc2sccc12)c1ccccn1 (stereo not drawn) [T5672380] | 3.91 µM
CN1c2ccccc2C(=O)NC1c1ccc(Cl)c(Cl)c1 (stereo not drawn) [T5389517] | 5.74 µM
CCCC(=O)Nc1nc(-c2ccc3c(c2)CCO3)cs1 [T5691896] | 5.21 µM
CC(=O)N1CC(C)(C)c2cc(S(=O)(=O)Nc3ccc(F)cc3C)ccc21 [L302-0181] | 5.05 µM
CN(C)c1ccc2ncnc(N3CCN(C(=O)c4ccc(Cl)cc4)CC3)c2c1 [M381-0730] | 3.19 µM
CCNc1cc(C)nc(Nc2ccc(NC(=O)c3cccs3)cc2)n1 [G869-0071] | 4.9 µM

What follows are molecules tested on primary astrocytes (assay: High throughput screening for lactate secretion: acidification of extracellular medium (SNARF5)). Settings: Mus musculus, Astrocyte, 1.5 h; Appendix I; primary screening, 10 uM, 90 min; relative to positive control; read-out: Score.
Type: cell-based, mouse
Description: as §1
Secretion of lactate in a high-throughput screening (HTS) fashion was measured indirectly through the acidification of extracellular medium. To this end, primary astrocytes grown in 96-well plates for 17 days were stimulated with the compounds as listed herein.
After washing the cells twice with stimulation medium (DMEM (D5030, Sigma), 3 mM NaHCO3 and 5 mM Glucose) at 37° C., cells were stimulated with the compounds at a final concentration of 10 uM (1% DMSO final) in 50 ul per well of stimulation medium supplemented with 10 uM of the extracellular pH sensor SNARF-5F %-(AND-6)-CAR (Life Technologies Corporation). Each compound was tested in two different plates for duplicates.
After 90 min stimulation, fluorescence was read at exc. (excitation) 480 nm/emm. (emission) 580 nm and at exc 480 nm/emm. 630 nm. The ratio of fluorescence between 630 nm and 580 emission values, which represents extracellular pH, was calculated.
In each plate, 8 wells were used for negative controls (DMSO) and 8 wells were used for positive controls (CCCP 2 uM in DMSO). Z prime values were calculated for each of the plates tested and values <0 were discarded.
The average and SD of compounds' values tested in duplicates were calculated, and compound was noted as HIT when the difference between compound's average and negative control's average was greater than three times the sum of compound's SD and negative controls' SD. Only scores greater than 40% were considered as lead hits for the CDC54K library; for the remaining libraries, all hits were considered. Scores are calculated as the % of activity compared to the positive control in each plate (which is 100%).
Primary screening hits were cherry picked on new plates and confirmed for SNARF5 effect, after having discarded those compounds that are fluorescent (exc. 480 nm/emm. 580 nm or 630 nm) before stimulation. Extracellular medium was next analyzed for extracellular lactate quantification for secondary screening.
Identification of lactate-enhancing drugs with high throughput screening (HTS) experiments on astrocytes primary cultures using extracellular pH dye (SNARF5F 5-(and 6)-carboxylic acid) for 90 min. The procedure is described in Material and Methods (2. Cell culture, 2.1. HTS for lactate secretion and 2.2. Extracellular lactate quantification).
The procedure was performed as follows: • Primary screening: acidification of the extracellular medium • Primary screening confirmation: acidification of the extracellular medium, removal of compounds with fluorescent activity at exc. 480 nm/emm. 580 nm or 630 nm. • Secondary screening: dosage of extracellular lactate

Structure (SMILES) | Emax at 10 µM
CC(Nc1ncnc2sccc12)c1ccccn1 (stereo not drawn) [T5672380] | 76.5%
